Assay: Multiple-dose PK of API-in-capsule formulation BID for 10 days in healthy human subjects
Assay type: in vivo
Experimental: The mean CSF to unbound plasma ratio was about 1.0. Data shown is from 25, 80, and100 mg BID multiple dose cohorts.
Formula I compound was administered to healthy young human subjects as an API-in- capsule formulation at doses of 25 mg, 40 mg, 80 mg and 100 mg BID, and to healthy elder subjects at 80 mg BID. Formula I compound concentrations were determined on Day 1 and 10 and at trough on selected day during the 10 days of administration. […] The terminal half-life, and plasma concentrations and pS935 inhibition at trough (minima) are consistent with twice-daily administration as an efficacious regimen.
[…] variability in the ratio was seen because of the parallel (non-crossover) nature of the study design. […] Physiologically-based PK modelling, was used to predict the Cmax/Cmin ratio for MUPS formulations contain various amounts of KOLLICOAT® polymer.

plasma Cmax and AUC versus dose (25 to 100 mg BID dose range): dose-proportional | Kp at 10 day (human, CSF / unbound plasma, oral, healthy young and healthy elderly, Day 10, 25, 80 and 100 mg BID immediate release capsule, read-out: mean CSF to unbound plasma ratio): ~1 | half-life (human, plasma, oral, postdose Day 10, 25-100 mg BID, read-out: terminal half-life in plasma): 14 to 26 h
SMILES: CNc1nc(Nc2cn(C(C)(C)C#N)nc2C)ncc1C(F)(F)F [Formula I compound, 2-methyl-2-(3-methyl-4-(4-(methylamino)-5-(trifluoromethyl)pyrimidin-2-ylamino)-1H-pyrazol-1-yl)propanenitrile]
